We go through 28 compounds from ChEMBL document CHEMBL1155422, “SAR of tertiary carbinamine derived BACE1 inhibitors: role of aspartate ligand amine pKa in enzyme inhibition” (Bioorg Med Chem Lett, 2010).

For assay [1], the target named is T1, Beta-secretase 1 (Homo sapiens, UniProt P56817). As to the kind of experiment: Inhibition of BACE1.
The target in assay [2] is T1, Beta-secretase 1. As to the kind of experiment: Inhibition of human BACE1 expressed in mouse fibroblast cells assessed as inhibition of secreted APPbeta-NF production at pH 7.2. The assay is classed as cell-based.

T1 sequence (P56817 whole entry): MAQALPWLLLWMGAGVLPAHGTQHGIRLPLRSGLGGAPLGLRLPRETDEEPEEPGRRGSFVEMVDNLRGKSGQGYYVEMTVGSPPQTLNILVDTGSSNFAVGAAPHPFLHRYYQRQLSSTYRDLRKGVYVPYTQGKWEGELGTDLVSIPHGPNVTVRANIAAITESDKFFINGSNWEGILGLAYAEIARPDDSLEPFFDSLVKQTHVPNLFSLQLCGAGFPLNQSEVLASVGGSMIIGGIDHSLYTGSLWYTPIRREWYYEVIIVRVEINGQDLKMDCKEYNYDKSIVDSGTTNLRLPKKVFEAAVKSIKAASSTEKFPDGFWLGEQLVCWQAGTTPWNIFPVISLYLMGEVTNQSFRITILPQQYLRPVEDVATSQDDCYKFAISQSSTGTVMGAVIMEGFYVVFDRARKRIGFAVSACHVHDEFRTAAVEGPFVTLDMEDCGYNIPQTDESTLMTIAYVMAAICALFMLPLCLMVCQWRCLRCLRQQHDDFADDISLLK

As to `C[C@@H](NC(=O)c1cc(COC(=O)C(N)(CO)Cc2ccccc2)cc(N(C)S(C)(=O)=O)c1)c1ccc(F)cc1` (some centres undefined), the values for the 50% inhibitory concentration (IC50) in assay [1] and in assay [2] were 0.31 µM and 0.684 µM, respectively.
Take `C[C@@H](NC(=O)c1cc(COC(=O)C(C)(N)Cc2ccccc2)cc(N(C)S(C)(=O)=O)c1)c1ccc(F)cc1` (some centres undefined): the concentration for half-maximal inhibition (IC50) in assay [1] is 0.019 µM; in assay [2] it was 0.163 µM.
In assay [1], `C[C@@H](NC(=O)c1cc(CNC(=O)C(C)(N)Cc2ccccc2)cc(N(C)S(C)(=O)=O)c1)c1ccc(F)cc1` (some centres undefined) came in with an IC50 of 5.72 µM.
In the case of `C[C@@H](NC(=O)c1cc(-c2nc([C@](C)(N)Cc3ccccc3)no2)cc(N(C)S(C)(=O)=O)c1)c1ccc(F)cc1`, the IC50 in assay [1] is 1.83 µM.
On to `C[C@@H](NC(=O)c1cc(CNC[C@](N)(CO)Cc2ccccc2)cc(N(C)S(C)(=O)=O)c1)c1ccc(F)cc1`, for which the values for the IC50 in assay [1] and in assay [2] were 10.1 µM and 3.47 µM, respectively.
Compound `C[C@@H](NC(=O)c1cc(CCC[C@](N)(CO)Cc2ccccc2)cc(N(C)S(C)(=O)=O)c1)c1ccc(F)cc1` registered an IC50 in assay [1] of 22.4 µM.
In assay [1], `C[C@@H](NC(=O)c1cc(OCCC(N)(CO)Cc2ccccc2)cc(N(C)S(C)(=O)=O)c1)c1ccc(F)cc1` (some centres undefined) displayed an IC50 of 70.5 µM.
`C[C@@H](NC(=O)c1cc(N(C)S(C)(=O)=O)cc(S(=O)(=O)CCC(N)(CO)Cc2ccccc2)c1)c1ccc(F)cc1` (some centres undefined) gave a half-inhibitory concentration (IC50) in assay [1] above 100 µM.
For `C[C@@H](NC(=O)c1cc(CNC(=O)C(N)(CO)Cc2ccccc2)cc(N(C)S(C)(=O)=O)c1)c1ccc(F)cc1` (some centres undefined), in assay [1], the IC50 was 18.1 µM.
Take `CNC(CO)(COC(=O)c1cc(C(=O)N[C@H](C)c2ccc(F)cc2)cc(N(C)S(C)(=O)=O)c1)Cc1ccccc1` (some centres undefined): in assay [1], the IC50 is above 100 µM.
For the compound `C[C@@H](NC(=O)c1cc(C(=O)NCC(N)(CO)Cc2ccccc2)cc(N(C)S(C)(=O)=O)c1)c1ccc(F)cc1` (some centres undefined), the midpoint of inhibition in assay [1], the IC50, lay at 10.8 µM.
Consider `C[C@@H](NC(=O)c1cc(COC[C@](N)(CO)Cc2ccccc2)cc(N(C)S(C)(=O)=O)c1)c1ccc(F)cc1`, for which the half-maximal inhibitory concentration (IC50) in assay [1] worked out at 1.37 µM; in assay [2] it was 0.58 µM.
In assay [1], `C[C@@H](NC(=O)c1cc(C(=O)OCC(O)(CN)Cc2ccccc2)cc(N(C)S(C)(=O)=O)c1)c1ccc(F)cc1` (some centres undefined) had a 50% inhibitory concentration (IC50) of 22.2 µM.
Take `C[C@@H](NC(=O)c1cc(C(=O)NCC(O)(CO)Cc2ccccc2)cc(N(C)S(C)(=O)=O)c1)c1ccc(F)cc1` (some centres undefined): in assay [1], the IC50 is 24.9 µM.
Compound `C[C@@H](NC(=O)c1cc(NCCC(N)(CO)Cc2ccccc2)cc(N(C)S(C)(=O)=O)c1)c1ccc(F)cc1` (some centres undefined) gave a 50% inhibitory concentration (IC50) in assay [1] above 100 µM.
The same measure, in the same setting: under `C[C@@H](NC(=O)c1cc(N(C)S(C)(=O)=O)cc(-n2cc([C@](C)(N)Cc3ccccc3)nn2)c1)c1ccc(F)cc1` stands 16.3 µM.
With `C[C@@H](NC(=O)c1cc(-c2n[nH]c([C@](C)(N)Cc3ccccc3)n2)cc(N(C)S(C)(=O)=O)c1)c1ccc(F)cc1`, the IC50 in assay [1] turned out to be 0.822 µM; in assay [2], 4.74 µM.
In assay [1], `C[C@@H](NC(=O)c1cc(SCCC(N)(CO)Cc2ccccc2)cc(N(C)S(C)(=O)=O)c1)c1ccc(F)cc1` (some centres undefined) gave an IC50 above 100 µM.
For `C[C@@H](NC(=O)c1cc(COC[C@H](N)Cc2ccccc2)cc(N(C)S(C)(=O)=O)c1)c1ccc(F)cc1`, the results for the IC50 in assay [1] and in assay [2] were 10.1 µM and 1.71 µM, respectively.
Compound `C[C@@H](NC(=O)c1cc(-c2noc([C@](C)(N)Cc3ccccc3)n2)cc(N(C)S(C)(=O)=O)c1)c1ccc(F)cc1` registered an IC50 in assay [1] of 2.06 µM.
In assay [1], `C[C@@H](NC(=O)c1cc(-c2nnc([C@](C)(N)Cc3ccccc3)s2)cc(N(C)S(C)(=O)=O)c1)c1ccc(F)cc1` gave an IC50 of 29.9 µM.
Turning to `C[C@@H](NC(=O)c1cc(-c2ncc([C@](C)(N)Cc3ccccc3)o2)cc(N(C)S(C)(=O)=O)c1)c1ccc(F)cc1`, the IC50 in assay [1] was found to be 0.007 µM; in assay [2], 0.005 µM.
For `C[C@@H](NC(=O)c1cc(COC[C@](C)(N)Cc2ccccc2)cc(N(C)S(C)(=O)=O)c1)c1ccc(F)cc1`, the IC50 worked out at 0.344 µM in assay [1] and 0.138 µM in assay [2].
In the case of `C[C@@H](NC(=O)c1cc(COCC(N)(Cc2ccccc2)C(F)F)cc(N(C)S(C)(=O)=O)c1)c1ccc(F)cc1` (mixture of isomers), the IC50 in assay [1] is 0.925 µM; in assay [2], above 20 µM.
For `COCC(N)(COCc1cc(C(=O)N[C@H](C)c2ccc(F)cc2)cc(N(C)S(C)(=O)=O)c1)Cc1ccccc1` (mixture of isomers), the concentration for half-maximal inhibition (IC50) in assay [1] was above 100 µM.
For the compound `C[C@@H](NC(=O)c1cc(-c2ccc(C(C)(N)Cc3ccccc3)o2)cc(N(C)S(C)(=O)=O)c1)c1ccc(F)cc1` (mixture of isomers), the figures for the IC50 in assay [1] and in assay [2] were 0.02 µM and 0.004 µM, respectively.
In turn, `CCC(N)(COCc1cc(C(=O)N[C@H](C)c2ccc(F)cc2)cc(N(C)S(C)(=O)=O)c1)Cc1ccccc1` (mixture of isomers) gave an IC50 in assay [1] of 22 µM.
On to `C[C@@H](NC(=O)c1cc(COCC(N)(CF)Cc2ccccc2)cc(N(C)S(C)(=O)=O)c1)c1ccc(F)cc1` (mixture of isomers), for which the IC50 in assay [1] came to 0.997 µM; in assay [2], 0.432 µM.

One may read the IC50 as the midpoint of a concentration-inhibition curve.
